Test: mn = molality of the nth substance listed, in mol/kg
Settings: 101 kPa, Liquid

O=C(O)CCCCC(=O)O [1,6-hexanedioic acid] + O
Settings	mass density [kg/m3]	viscosity [mPa·s]
293.15 K, m1 = 0.00708	998.48	1.006
293.15 K, m1 = 0.01399	998.72	1.008
293.15 K, m1 = 0.02122	999.01	1.01
293.15 K, m1 = 0.02857	999.2	1.014
293.15 K, m1 = 0.05669	1000.16	1.023
293.15 K, m1 = 0.08401	1000.95	1.035
293.15 K, m1 = 0.1125	1001.81	1.047
293.15 K, m1 = 0.143	1002.78	1.06
298.15 K, m1 = 0.01287	997.49	–
298.15 K, m1 = 0.0154	997.52	0.8959
298.15 K, m1 = 0.0257	997.83	0.8985
298.15 K, m1 = 0.02702	997.91	–
298.15 K, m1 = 0.03133	998.11	0.9017
298.15 K, m1 = 0.03789	998.27	0.9028
298.15 K, m1 = 0.04282	998.42	–
298.15 K, m1 = 0.0455	–	0.905
298.15 K, m1 = 0.05256	–	0.9074
298.15 K, m1 = 0.05544	998.81	–
298.15 K, m1 = 0.05776	–	0.9102
298.15 K, m1 = 0.06453	–	0.9122
298.15 K, m1 = 0.06825	999.2	–
298.15 K, m1 = 0.06989	999.21	0.9136
298.15 K, m1 = 0.08417	999.71	–
298.15 K, m1 = 0.08956	–	0.9197
298.15 K, m1 = 0.09767	1000.15	–
298.15 K, m1 = 0.1088	1000.49	–
298.15 K, m1 = 0.1136	1000.66	0.9285
298.15 K, m1 = 0.1266	1001.01	–
298.15 K, m1 = 0.1377	1001.33	–
303.15 K, m1 = 0.01287	996.07	–
303.15 K, m1 = 0.0154	996.08	0.8022
303.15 K, m1 = 0.0257	996.56	0.806
303.15 K, m1 = 0.02702	996.51	–
303.15 K, m1 = 0.03133	996.64	0.8073
303.15 K, m1 = 0.03789	996.83	0.8085
303.15 K, m1 = 0.04282	996.99	–
303.15 K, m1 = 0.0455	–	0.8116
303.15 K, m1 = 0.05256	–	0.8134
303.15 K, m1 = 0.05544	997.38	–
303.15 K, m1 = 0.05776	–	0.8148
303.15 K, m1 = 0.06453	–	0.8157
303.15 K, m1 = 0.06825	997.72	–
303.15 K, m1 = 0.06989	997.73	0.8172
303.15 K, m1 = 0.08417	998.28	–
303.15 K, m1 = 0.08956	–	0.8233
303.15 K, m1 = 0.09767	998.74	–
303.15 K, m1 = 0.1088	999.01	–
303.15 K, m1 = 0.1136	999.1	0.8297
303.15 K, m1 = 0.1266	999.56	–
303.15 K, m1 = 0.1377	999.93	–
308.15 K, m1 = 0.01287	994.41	–
308.15 K, m1 = 0.0154	994.45	0.7229
308.15 K, m1 = 0.0257	994.79	0.7255
308.15 K, m1 = 0.02702	994.89	–
308.15 K, m1 = 0.03133	994.96	0.7275
308.15 K, m1 = 0.03789	995.17	0.7285
308.15 K, m1 = 0.04282	995.34	–
308.15 K, m1 = 0.0455	–	0.7309
308.15 K, m1 = 0.05256	–	0.7323
308.15 K, m1 = 0.05544	995.71	–
308.15 K, m1 = 0.05776	–	0.7334
308.15 K, m1 = 0.06453	–	0.7353
308.15 K, m1 = 0.06825	996.07	–
308.15 K, m1 = 0.06989	996.09	0.7362
308.15 K, m1 = 0.08417	996.55	–
308.15 K, m1 = 0.08956	–	0.7406
308.15 K, m1 = 0.09767	996.95	–
308.15 K, m1 = 0.1088	997.25	–
308.15 K, m1 = 0.1136	997.47	0.7457
308.15 K, m1 = 0.1266	997.79	–
308.15 K, m1 = 0.1377	998.16	–
313.15 K, m1 = 0.01287	992.54	–
313.15 K, m1 = 0.0154	992.58	0.6559
313.15 K, m1 = 0.0257	992.89	0.6585
313.15 K, m1 = 0.02702	993.01	–
313.15 K, m1 = 0.03133	993.19	0.66
313.15 K, m1 = 0.03789	993.29	0.6612
313.15 K, m1 = 0.04282	993.45	–
313.15 K, m1 = 0.0455	–	0.6625
313.15 K, m1 = 0.05256	–	0.6639
313.15 K, m1 = 0.05544	993.89	–
313.15 K, m1 = 0.05776	–	0.6643
313.15 K, m1 = 0.06453	–	0.6663
313.15 K, m1 = 0.06825	994.21	–
313.15 K, m1 = 0.06989	994.21	0.6674
313.15 K, m1 = 0.08417	994.66	–
313.15 K, m1 = 0.08956	–	0.6708
313.15 K, m1 = 0.09767	995.03	–
313.15 K, m1 = 0.1088	995.33	–
313.15 K, m1 = 0.1136	995.47	0.6754
313.15 K, m1 = 0.1266	995.88	–
313.15 K, m1 = 0.1377	996.19	–

O [water] + O=C(O)CCCCC(=O)O
m2 = 0
Settings	viscosity [mPa·s]
293.15 K	1.002
298.15 K	0.8904
303.15 K	0.7975
308.15 K	0.7194
313.15 K	0.653

Reference: the NIST ThermoML archive (doi:10.1021/je060189f)
